{"source": "ChEMBL document CHEMBL1130059", "about": "“Neurotrophic 3,9-bis[(alkylthio)methyl]-and-bis(alkoxymethyl)-K-252a derivatives” (J Med Chem, 1997)", "key": {"[1]": {"molecular_target": "T1, Choline O-acetyltransferase (Rattus norvegicus) (UniProt P32738)", "T1 sequence (whole entry)": "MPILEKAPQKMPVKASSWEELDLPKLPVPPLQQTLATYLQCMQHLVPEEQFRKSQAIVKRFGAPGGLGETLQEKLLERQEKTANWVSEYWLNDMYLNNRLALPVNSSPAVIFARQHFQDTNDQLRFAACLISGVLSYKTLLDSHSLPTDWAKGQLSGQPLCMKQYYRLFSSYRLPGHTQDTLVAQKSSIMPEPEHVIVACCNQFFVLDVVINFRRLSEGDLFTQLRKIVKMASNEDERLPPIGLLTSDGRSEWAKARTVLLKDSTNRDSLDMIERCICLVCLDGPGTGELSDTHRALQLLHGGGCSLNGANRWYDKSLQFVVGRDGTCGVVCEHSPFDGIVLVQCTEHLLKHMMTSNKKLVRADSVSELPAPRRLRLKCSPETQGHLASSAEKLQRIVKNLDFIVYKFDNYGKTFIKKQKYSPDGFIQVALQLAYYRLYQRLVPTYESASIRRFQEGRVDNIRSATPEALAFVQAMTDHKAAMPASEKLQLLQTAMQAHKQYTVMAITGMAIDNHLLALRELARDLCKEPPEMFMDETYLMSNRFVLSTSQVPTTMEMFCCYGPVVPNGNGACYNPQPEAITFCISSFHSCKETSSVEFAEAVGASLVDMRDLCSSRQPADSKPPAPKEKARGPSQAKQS", "assay": "Neurotrophic activity as measured by the ability to enhance embryonic rat spinal cord choline acetyl transferase at 300 nM", "assay_type": "functional"}, "[2]": {"molecular_target": "T1, Choline O-acetyltransferase (Rattus norvegicus)", "assay": "Neurotrophic activity as measured by the ability to enhance embryonic rat spinal cord choline acetyl transferase at 30 nM", "assay_type": "functional"}, "[3]": {"molecular_target": "High affinity nerve growth factor receptor (Homo sapiens, UniProt P04629)", "sequence (P04629 whole entry)": "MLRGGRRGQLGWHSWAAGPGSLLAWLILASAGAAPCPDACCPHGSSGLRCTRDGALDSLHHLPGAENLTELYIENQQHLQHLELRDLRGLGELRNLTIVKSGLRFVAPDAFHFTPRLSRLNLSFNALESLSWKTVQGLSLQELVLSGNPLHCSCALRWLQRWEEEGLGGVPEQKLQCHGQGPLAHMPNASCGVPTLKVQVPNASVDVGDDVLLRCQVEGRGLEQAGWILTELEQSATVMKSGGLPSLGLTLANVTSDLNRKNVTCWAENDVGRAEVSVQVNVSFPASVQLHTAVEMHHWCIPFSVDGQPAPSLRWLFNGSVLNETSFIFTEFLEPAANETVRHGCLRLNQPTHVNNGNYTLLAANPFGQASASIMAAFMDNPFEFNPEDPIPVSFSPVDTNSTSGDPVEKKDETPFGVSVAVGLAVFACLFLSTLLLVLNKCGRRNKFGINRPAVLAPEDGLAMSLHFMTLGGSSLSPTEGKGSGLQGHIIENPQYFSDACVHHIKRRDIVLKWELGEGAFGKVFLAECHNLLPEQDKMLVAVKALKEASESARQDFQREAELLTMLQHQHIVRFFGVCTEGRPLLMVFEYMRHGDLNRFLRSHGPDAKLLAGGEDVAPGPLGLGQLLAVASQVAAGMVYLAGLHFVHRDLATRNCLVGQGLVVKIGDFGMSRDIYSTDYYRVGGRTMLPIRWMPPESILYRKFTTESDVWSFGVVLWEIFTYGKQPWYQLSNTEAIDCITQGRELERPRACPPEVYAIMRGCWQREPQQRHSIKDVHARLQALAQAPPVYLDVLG", "assay": "Ability to inhibit human trk A tyrosine kinase expressed in baculovirus using ELISA based enzyme assay was determined"}, "[4]": {"molecular_target": "T1, Choline O-acetyltransferase (Rattus norvegicus)", "assay": "Neurotrophic activity as measured by the ability to enhance basal forebrain choline acetyl transferase at 250 nM", "assay_type": "functional"}, "[5]": {"molecular_target": "T1, Choline O-acetyltransferase (Rattus norvegicus)", "assay": "Neurotrophic activity as measured by the ability to enhance basal forebrain choline acetyl transferase at 50 nM", "assay_type": "functional"}, "[6]": {"molecular_target": "Myosin light chain kinase, smooth muscle (Gallus gallus, UniProt P11799)", "sequence (P11799 whole entry)": "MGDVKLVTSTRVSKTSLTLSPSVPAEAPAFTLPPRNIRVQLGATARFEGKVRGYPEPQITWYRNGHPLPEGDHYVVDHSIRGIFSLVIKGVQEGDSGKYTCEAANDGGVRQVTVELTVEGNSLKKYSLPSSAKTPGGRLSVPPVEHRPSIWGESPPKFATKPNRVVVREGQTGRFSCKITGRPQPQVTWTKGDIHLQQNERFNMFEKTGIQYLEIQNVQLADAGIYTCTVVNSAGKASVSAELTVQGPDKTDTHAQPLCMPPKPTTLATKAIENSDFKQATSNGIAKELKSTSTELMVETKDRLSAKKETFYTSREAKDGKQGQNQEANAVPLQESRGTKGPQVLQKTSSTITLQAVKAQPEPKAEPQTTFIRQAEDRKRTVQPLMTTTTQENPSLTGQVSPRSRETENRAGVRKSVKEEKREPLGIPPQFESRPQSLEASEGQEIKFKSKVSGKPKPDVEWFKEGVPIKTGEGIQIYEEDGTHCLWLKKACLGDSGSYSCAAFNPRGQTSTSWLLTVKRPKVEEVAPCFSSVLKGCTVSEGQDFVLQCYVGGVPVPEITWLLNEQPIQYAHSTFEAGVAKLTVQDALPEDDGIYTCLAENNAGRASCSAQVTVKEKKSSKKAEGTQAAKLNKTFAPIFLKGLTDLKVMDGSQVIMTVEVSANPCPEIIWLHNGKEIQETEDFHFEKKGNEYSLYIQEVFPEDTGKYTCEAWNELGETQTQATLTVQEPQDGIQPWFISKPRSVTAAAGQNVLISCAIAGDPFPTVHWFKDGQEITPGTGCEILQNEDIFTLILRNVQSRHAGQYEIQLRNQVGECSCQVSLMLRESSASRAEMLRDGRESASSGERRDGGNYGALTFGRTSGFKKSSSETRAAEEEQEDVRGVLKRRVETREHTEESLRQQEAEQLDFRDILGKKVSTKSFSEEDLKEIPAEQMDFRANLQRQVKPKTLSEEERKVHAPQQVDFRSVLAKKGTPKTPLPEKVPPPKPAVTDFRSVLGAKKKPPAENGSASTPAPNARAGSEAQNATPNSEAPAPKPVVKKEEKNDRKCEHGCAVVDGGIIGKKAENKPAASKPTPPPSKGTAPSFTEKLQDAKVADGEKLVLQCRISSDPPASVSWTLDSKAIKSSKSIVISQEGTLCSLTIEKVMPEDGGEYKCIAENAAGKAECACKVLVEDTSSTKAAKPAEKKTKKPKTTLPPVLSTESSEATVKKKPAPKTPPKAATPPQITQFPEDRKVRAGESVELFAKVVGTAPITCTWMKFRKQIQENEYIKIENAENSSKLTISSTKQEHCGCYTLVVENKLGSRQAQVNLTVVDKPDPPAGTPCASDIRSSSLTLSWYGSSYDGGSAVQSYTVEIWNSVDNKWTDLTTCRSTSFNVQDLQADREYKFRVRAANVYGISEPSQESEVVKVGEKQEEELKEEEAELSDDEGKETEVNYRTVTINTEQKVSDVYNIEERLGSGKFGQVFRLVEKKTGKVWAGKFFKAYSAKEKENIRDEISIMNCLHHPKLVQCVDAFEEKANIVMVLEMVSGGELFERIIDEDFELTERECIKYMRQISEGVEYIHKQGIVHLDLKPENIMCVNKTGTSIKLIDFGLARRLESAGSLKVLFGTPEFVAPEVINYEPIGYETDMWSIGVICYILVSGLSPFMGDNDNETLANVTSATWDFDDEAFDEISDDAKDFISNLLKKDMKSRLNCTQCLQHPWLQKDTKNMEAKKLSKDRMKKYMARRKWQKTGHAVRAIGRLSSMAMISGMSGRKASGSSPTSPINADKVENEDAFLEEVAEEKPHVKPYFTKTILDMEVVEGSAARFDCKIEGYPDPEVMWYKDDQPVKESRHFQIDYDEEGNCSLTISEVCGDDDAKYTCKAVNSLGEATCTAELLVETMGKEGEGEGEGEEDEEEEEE", "assay": "Inhibition of Smooth muscle myosin light chain kinase of chicken gizzard"}, "[7]": {"molecular_target": "cAMP-dependent protein kinase alpha-catalytic subunit (Oryctolagus cuniculus, UniProt Q95J97)", "assay": "Inhibition of cAMP dependent Protein kinase A of rabbit Skeletal Muscle."}, "Protein kinase C (PKC)": {"molecular_target": "Protein kinase C (PKC)", "assay": "Inhibition of Protein kinase C of Rat brain"}}}
{"smiles": "COC(=O)[C@@]1(O)CC2O[C@]1(C)n1c3ccc(CO)cc3c3c4c(c5c6cc(CO)ccc6n2c5c31)C(=O)NC4", "values": [{"measurement": "Control", "setting": "[1]", "value": "< 120", "unit": "%"}, {"measurement": "Control", "setting": "[2]", "value": "< 120", "unit": "%"}]}
{"smiles": "CCCSCc1ccc2c(c1)c1c3c(c4c5cc(CSCCC)ccc5n5c4c1n2C1C[C@](O)(C(=O)OC)[C@]5(C)O1)CNC3=O", "values": [{"measurement": "IC50", "setting": "[3]", "value": "> 1000", "unit": "nM"}, {"measurement": "Control", "setting": "[1]", "value": 315, "unit": "%"}, {"measurement": "Control", "setting": "[2]", "value": "< 120", "unit": "%"}, {"measurement": "Control", "setting": "[4]", "value": 180, "unit": "%"}, {"measurement": "Control", "setting": "[5]", "value": "< 120", "unit": "%"}]}
{"smiles": "COC(=O)[C@@]1(O)CC2O[C@]1(C)n1c3ccc(CSCCN(C)C)cc3c3c4c(c5c6cc(CSCCN(C)C)ccc6n2c5c31)C(=O)NC4", "values": [{"measurement": "Control", "setting": "[1]", "value": 208, "unit": "%"}, {"measurement": "Control", "setting": "[2]", "value": "< 120", "unit": "%"}, {"measurement": "Control", "setting": "[4]", "value": 158, "unit": "%"}, {"measurement": "Control", "setting": "[5]", "value": "< 120", "unit": "%"}]}
{"smiles": "COC(=O)[C@@]1(O)C[C@H]2O[C@]1(C)n1c3ccccc3c3c4c(c5c6ccccc6n2c5c31)C(=O)NC4", "note": "[K-252A]", "values": [{"measurement": "Control", "setting": "[1]", "value": 186, "unit": "%"}, {"measurement": "IC50", "setting": "[6]", "value": 20, "unit": "nM"}, {"measurement": "Control", "setting": "[2]", "value": "< 120", "unit": "%"}, {"measurement": "IC50", "setting": "[7]", "value": 16, "unit": "nM"}, {"measurement": "Control", "setting": "[4]", "value": 325, "unit": "%"}, {"measurement": "Control", "setting": "[5]", "value": 148, "unit": "%"}]}
{"smiles": "CCCCSCc1ccc2c(c1)c1c3c(c4c5cc(CSCCCC)ccc5n5c4c1n2C1C[C@](O)(C(=O)OC)[C@]5(C)O1)CNC3=O", "values": [{"measurement": "IC50", "setting": "[3]", "value": "> 1000", "unit": "nM"}, {"measurement": "Control", "setting": "[1]", "value": 289, "unit": "%"}, {"measurement": "Control", "setting": "[2]", "value": "< 120", "unit": "%"}, {"measurement": "Control", "setting": "[4]", "value": 200, "unit": "%"}, {"measurement": "Control", "setting": "[5]", "value": 143, "unit": "%"}]}
{"smiles": "CCOCc1ccc2c(c1)c1c3c(c4c5cc(COCC)ccc5n5c4c1n2C1C[C@](O)(C(=O)OC)[C@]5(C)O1)CNC3=O", "values": [{"measurement": "IC50", "setting": "[3]", "value": 210, "unit": "nM"}, {"measurement": "Control", "setting": "[1]", "value": 188, "unit": "%"}, {"measurement": "Control", "setting": "[2]", "value": 153, "unit": "%"}, {"measurement": "Control", "setting": "[4]", "value": 237, "unit": "%"}, {"measurement": "Control", "setting": "[5]", "value": "< 120", "unit": "%"}]}
{"smiles": "COCc1ccc2c(c1)c1c3c(c4c5cc(COC)ccc5n5c4c1n2C1C[C@](O)(C(=O)OC)[C@]5(C)O1)CNC3=O", "values": [{"measurement": "IC50", "setting": "[3]", "value": 270, "unit": "nM"}, {"measurement": "Control", "setting": "[1]", "value": 218, "unit": "%"}, {"measurement": "Control", "setting": "[2]", "value": 193, "unit": "%"}, {"measurement": "Control", "setting": "[4]", "value": 340, "unit": "%"}, {"measurement": "Control", "setting": "[5]", "value": 168, "unit": "%"}]}
{"smiles": "COC(=O)[C@@]1(O)CC2O[C@]1(C)n1c3ccc(CSC(C)C)cc3c3c4c(c5c6cc(CSC(C)C)ccc6n2c5c31)C(=O)NC4", "values": [{"measurement": "IC50", "setting": "[3]", "value": "> 1000", "unit": "nM"}, {"measurement": "Control", "setting": "[1]", "value": 289, "unit": "%"}, {"measurement": "Control", "setting": "[2]", "value": "< 120", "unit": "%"}, {"measurement": "Control", "setting": "[5]", "value": 224, "unit": "%"}]}
{"smiles": "CCSCc1ccc2c(c1)c1c3c(c4c5cc(CSCC)ccc5n5c4c1n2C1C[C@](O)(C(=O)OC)[C@]5(C)O1)CNC3=O", "values": [{"measurement": "IC50", "setting": "[3]", "value": "> 1000", "unit": "nM"}, {"measurement": "Control", "setting": "[1]", "value": 280, "unit": "%"}, {"measurement": "IC50", "setting": "[6]", "value": "> 10000", "unit": "nM"}, {"measurement": "Control", "setting": "[2]", "value": 140, "unit": "%"}, {"measurement": "IC50", "setting": "[7]", "value": "> 10000", "unit": "nM"}, {"measurement": "IC50", "setting": "Protein kinase C (PKC)", "value": 16.3, "unit": "µM"}, {"measurement": "Control", "setting": "[4]", "value": 363, "unit": "%"}, {"measurement": "Control", "setting": "[5]", "value": 143, "unit": "%"}]}
{"smiles": "C=CCSCc1ccc2c(c1)c1c3c(c4c5cc(CSCC=C)ccc5n5c4c1n2C1C[C@](O)(C(=O)OC)[C@]5(C)O1)CNC3=O", "values": [{"measurement": "IC50", "setting": "[3]", "value": "> 1000", "unit": "nM"}, {"measurement": "Control", "setting": "[1]", "value": 302, "unit": "%"}, {"measurement": "Control", "setting": "[2]", "value": "< 120", "unit": "%"}, {"measurement": "Control", "setting": "[4]", "value": 191, "unit": "%"}, {"measurement": "Control", "setting": "[5]", "value": "< 120", "unit": "%"}]}
